PubChem BioAssay AID2305 (GlaxoSmithKline (GSK), 2010)
Where “and” joins values, the source holds several entries; their conditions need not be identical. Equal entries are not always repeated.

System: P. falciparum 3D7 growth, pLDH absorbance
Test: blood-stage malaria parasite growth potency – strain 3D7, dose response (AID 2305)

Row | Compound | IC50
1 | O=C(Nc1cncc(NC(=O)c2ccc(Cl)c(Cl)c2)c1)c1ccc(Cl)c(Cl)c1 | 730 nM
2 | Nc1cccc(CNCc2ccc(-c3cccc(-c4nc5ccc(C(F)(F)F)cc5[nH]4)c3)cc2)c1 | 170 nM
3 | NC(=O)c1cccc(C(=O)Nc2cccc(-c3ccc(-c4nc5ccc(C(F)(F)F)cc5[nH]4)cc3)c2)c1 | 520 nM
4 | COc1ccc(-c2cnc(N)c(-c3nc4ccc(Br)cc4[nH]3)c2)cc1 | 1560 nM
5 | Clc1cc(Br)ccc1-c1ccc(CNCC2CCNCC2)o1 | 1510 nM
6 | Fc1cccc(-c2ccc3c(c2)CC(NCc2c[nH]c4cnccc24)C3)c1 (configuration not stated) | 480 nM
7 | CN1CCN(CCCN(Cc2csc(-c3ccc(CNCc4ccccc4)cc3)n2)C(=O)Nc2cc(Cl)cc(Cl)c2)CC1 | 700 nM
8 | C=CCc1cc(Cc2cnc(N)nc2N)c2ccc(C)nc2c1O | 1040 nM
9 | O=C(/C=C/c1ccccc1Cl)NC1CCC(CN2CCC(c3c[nH]c4ccccc34)CC2)CC1 (configuration not stated) | 600 nM and 850 nM
10 | O=C1C=Cc2ccccc2/C1=C/c1sc(=NCc2ccccc2)n(Cc2ccccc2)c1O | 160 nM
11 | COc1ccc(NC(=O)[C@H](Cc2ccccc2)Nc2cc(C)nc(NCCc3ccccn3)n2)cc1 | 830 nM
12 | Clc1cccc(C=NNc2ccnc3ccccc23)c1 | 850 nM
13 | Cc1cc(C(=O)Nc2ccc(C)c(-c3nc(N(C(=O)c4ccc(F)c(C)c4)C4CCNCC4)nc4c3ccc(=O)n4-c3c(F)cccc3F)c2)ccc1F | 320 nM
14 | CCCCCCCc1c2c(C)c(C(=O)OCC)nc-2cc2n1CC(C)=C2C | 1140 nM
15 | CCCC(CNCc1cccc(OC(F)(F)C(F)F)c1)CNc1cc(=O)c2ccccc2[nH]1 (configuration not stated) | 590 nM
16 | COc1cc(Cc2cnc(N)nc2N)cc(OCCCCC2SC(=O)NC2=O)c1Br (configuration not stated) | 120 nM
17 | C=CCn1c(Sc2ccc(C#N)c([N+](=O)[O-])c2)nnc1-c1cc(OC)cc(OC)c1 | 440 nM
18 | O=C(NCC(CCCN1CCC(c2c[nH]c3ccccc23)CC1)c1ccccc1)Nc1ccc(Cl)c(Cl)c1 (configuration not stated) | 790 nM
19 | Cc1cccc(C(=O)Nc2ccnc(N(C)CCCN(C)Cc3cccc(C#N)c3)c2)c1 | 1320 nM
20 | Cc1c(CNCCCNc2cc(=O)c3ccccc3[nH]2)sc(/C=N/O)c1Br | 1080 nM
21 | N=C(N)c1ccc(OCCCCCOc2ccc(C(=N)N)cc2)cc1 | 140 nM
22 | O=C(Nc1cccc(-c2cccc(-c3nc4ccc(F)cc4[nH]3)c2)c1)c1cnc[nH]1 | 460 nM
23 | O=C(Nc1cccc(-c2cccc(-c3nc4ccc(F)cc4[nH]3)c2)c1)c1ccncc1 | 510 nM
24 | CN1CCC(C(=O)N(Cc2ccc(-c3ccc(CNCCc4ccc(S(C)(=O)=O)cc4)cn3)cc2)Cc2cccc(F)c2)CC1 | 710 nM
25 | Cc1cc(-c2ccc(NC(=O)N3CCc4cc(Br)c(N5CCN(C)CC5)cc43)cc2)ccc1C#N | 880 nM

Row | Compound | IC50
26 | CC(Cc1ccc(OCCN2CCN(c3ccc(Cl)cc3)CC2)cc1)NCC(O)c1cccc(C(F)(F)F)c1 (configuration not stated) | 810 nM
27 | CN1CCC(Oc2cc(NC(=O)Nc3ccc(-c4ccncc4)c(Cl)c3)ccc2Cl)CC1 | 530 nM
28 | O=C(NC1CCN(CC2(c3ccccc3)CCCC2)CC1)c1[nH]ncc1Cl | 1040 nM
29 | CCCCCOc1ccc(C=NNc2nc(-c3ccccc3)cc(=O)[nH]2)cc1 | 890 nM
30 | Cc1cccc2[nH]c(-c3ccc(-c4cccc(CNCCc5ccncc5)c4)cc3)nc12 | 200 nM
31 | CC(C)(C)OC(=O)NCc1ccc(Nc2nnc(-c3ccc(OCC(=O)NC[C@@H]4CC[C@H]5C[C@@H]4C5(C)C)c([N+](=O)[O-])c3)o2)cc1 | 910 nM
32 | Fc1cccc(C=NNc2ccnc3ccccc23)c1 | 840 nM
33 | CCNc1cc(C(=O)N[C@@H](Cc2ccccc2)[C@H](O)CNCC(C)C)cc(N2CCCC2=O)c1 | 490 nM
34 | CC=CC1CCNC(C(O)c2ccnc3ccc(OC)cc23)C1 (configuration not stated) | 1090 nM
35 | CC1(C)N=C(N)N=C(N)N1O | 190 nM
36 | O=C(NC1CC1)c1ccc(N2CCC(COc3cccc(F)c3)CC2)nc1 | 1240 nM
37 | CC(C)CNCc1cccc(-c2cccc(CN(CCN(C)C)C(=O)Nc3ccccc3)c2)c1 | 800 nM
38 | CN1N=C2c3ccccc3CCC2C1c1ccc(C#N)cc1 (configuration not stated) | 660 nM
39 | Fc1ccc2nc(-c3cccc(-c4ccc(CNCCN5CCNCC5)cc4)c3)[nH]c2c1 | 900 nM
40 | CN1CCC(N2CCN(Cc3ccc(-c4cccc(-c5nc6ccccc6[nH]5)c4)cc3)CC2)CC1 | 140 nM
41 | CS(=O)(=O)Nc1cccc(-c2cnc3[nH]cc(-c4cccc(CN)c4)c3c2)c1 | 1660 nM
42 | O=C(Nc1ccc2c(c1)OCO2)NC1CCN(c2ccnc(Nc3ccc(F)cc3)n2)C1 (configuration not stated) | 740 nM
43 | CCNc1cc(C(=O)N[C@@H](Cc2ccccc2)[C@H](O)CNC(C)(C)c2cccc(OC)c2)cc(N2CCCC2=O)c1 | 140 nM
44 | CCOC(=O)c1ccc(NC(=O)N[C@H]2CCN(CCCCCNC(=O)/C=C/c3ccc(Cl)c(Cl)c3)C2)cc1 | 740 nM
45 | O=S(=O)(Nc1cccc(CCN2CCCCC2CCN2CCCC2)c1)c1ccc(-c2ccccc2)cc1 (configuration not stated) | 1090 nM
46 | CCCC1(NC[C@@H](O)[C@H](Cc2ccccc2)NC(=O)c2cc(NCC)cc(N3CCCCS3(=O)=O)c2)CCC1 | 720 nM
47 | COc1ccc(CN2CCC(NCc3ccc(C(F)(F)F)cc3)CC2)cc1 | 920 nM
48 | COc1ccccc1C1CN(Cc2coc3ccccc3c2=O)Cc2ccccc2O1 (configuration not stated) | 1320 nM
49 | Cc1[nH]c2ccccc2c1CC1CCN(CC2CCN(C(=O)/C=C/c3ccc(Cl)c(Cl)c3)CC2)CC1 | 950 nM
50 | Cc1cc(NCCCCCCNc2cc(C)nc3c(C)cccc23)c2cccc(C)c2n1 | 410 nM

Row | Compound | IC50
51 | Cc1ccc(NC(=O)Nc2ccccc2F)cc1-c1ccc(C(=O)Nc2ccncc2)cc1 | 560 nM
52 | O=[N+]([O-])c1cccc(CNCC2CCN(Cc3ccc(O)cc3)CC2)c1 | 670 nM
53 | Cn1nc(-c2ccc(S(=O)(=O)NC3CCC(CN4CCC(c5c[nH]c6ccccc56)CC4)CC3)s2)cc1C(F)(F)F (configuration not stated) | 840 nM and 820 nM
54 | Cc1cc(O)c(CN(C)Cc2ccc3c(c2)OCO3)cc1C(C)C | 740 nM
55 | CC(C)CN1C(=O)c2ccccc2C(C(=O)Nc2cccc(C#N)c2)C1c1cccs1 (configuration not stated) | 160 nM
56 | Cn1nc(C(F)(F)F)cc1-c1ccc(C(=O)Nc2ccc3c(c2)CNCC3(C)C)s1 | 1010 nM
57 | CCCCCCOc1ccc(C(N)=NCc2ccccc2)c2c1CCCC2 | 1270 nM
58 | O=C(NC1CC1)c1cnc(N2CCC(COc3cccc(F)c3)CC2)c(Cl)c1 | 1200 nM
59 | COc1ccc2nccc(N3CCC(SCCNCc4cc5c(cn4)OCCO5)C3)c2n1 (configuration not stated) | 770 nM
60 | CS(=O)(=O)NCCCNCc1cccc(-c2csc(-c3nc4ccccc4[nH]3)c2)c1 | 1010 nM
61 | CCCCOC(=O)c1ccc(NC(=O)Nc2ccc(Cn3ncc(N4CCCNCC4)c(Cl)c3=O)cc2)cc1 | 740 nM
62 | c1ccc2[nH]c(-c3ccc(-c4ccc(CNC5CC5)cc4)s3)nc2c1 | 1050 nM
63 | COc1cc2ncnc(Nc3ccc(OCc4ccccc4)c(C(F)(F)F)c3)c2cc1OC | 250 nM
64 | N#Cc1cccc(CN2CCCN(Cc3ccc(C(=O)Nc4ccc(Cl)cc4)cc3)CC2)c1 | 880 nM
65 | CCNc1cc(C(=O)N[C@@H](Cc2ccccc2)[C@H](O)CNC2(CCC(C)C)CC2)cc(N2CCCCS2(=O)=O)c1 | 1080 nM
66 | CCN(CC)CCNc1nccc(N(C)c2ccc(NC(=O)Nc3cc(C(F)(F)F)ccc3F)cc2)n1 | 550 nM
67 | Cc1ccc2nc(/N=C(\N)NC(=O)NC3CCCCC3)nc(C)c2c1 | 620 nM
68 | c1ccc2c(NCCCCCCCCCNc3ccnc4ccccc34)ccnc2c1 | 120 nM
69 | Cc1cc(NC(=O)CCCN2CCN(c3cccc(Cl)c3Cl)CC2)ccc1N1CCN(C(C)C)CC1 | 760 nM
70 | O=C(Nc1ccc(Br)cc1)c1cc(Br)ccc1NS(=O)(=O)c1ccc(C(F)(F)F)cc1 | 180 nM
71 | Cc1cc(C(=O)Nc2ccc(OCc3ccccc3)cc2)on1 | 990 nM
72 | CCn1ccc2c(N3CCCS3(=O)=O)cc(C(=O)N[C@@H](Cc3ccccc3)[C@H](O)CNC3CCCCC3)cc21 | 140 nM
73 | Cc1cccc2[nH]c(-c3ccc(-c4cccc(CNCCCNS(C)(=O)=O)c4)s3)nc12 | 1020 nM
74 | O=C(OCC1CCN(Cc2ccccc2)C1)c1ccc(Cl)cc1 (configuration not stated) | 680 nM
75 | Cc1cccc2c3c([nH]c12)C1(CCN(CCc2ccccc2)CC1)NC(C(=O)NCc1ccccc1)C3 (configuration not stated) | 1000 nM

Row | Compound | IC50
76 | Cc1cc(NC(=O)c2cccs2)ccc1OC1CCN(Cc2ccc(F)cc2)C1 (configuration not stated) | 670 nM
77 | Cc1nc2ccc3ccc(CNc4ccc(C#N)cc4)cc3c2c(=O)[nH]1 | 1440 nM
78 | CCN(CC)CCCNC(=O)/C(=C/C=C/c1cc2cc(Cl)c(Cl)cc2[nH]1)OC | 1160 nM
79 | CC1=C(C(=O)NC2CCC(CN3CCC(c4c[nH]c5ccccc45)CC3)CC2)Cc2ccccc21 (configuration not stated) | 830 nM and 1000 nM
80 | NC1CCN(Cc2ccc(-c3ccc(-c4nc5ccc(F)cc5[nH]4)s3)cc2)C1 (configuration not stated) | 650 nM
81 | CCC(C)NS(=O)(=O)c1ccc2nc(Nc3ccc(C)c(Cl)c3)n(C(C)C(C)C)c2c1 (configuration not stated) | 380 nM
82 | FC(F)(F)c1cccc(C=NNc2nc3ccccc3[nH]2)c1 | 150 nM
83 | O=C(NCc1cc2c(cc1Cl)OCO2)c1ccc(CNC2CCN(Cc3ccccc3)CC2)cc1 | 830 nM
84 | CN1CCCN(Cc2cccc(-c3ccc(NC(=O)c4cccc(C#N)c4)cc3)c2)CC1 | 720 nM
85 | O=C(Nc1ccc(Cn2ncc(N3CCCNCC3)c(Cl)c2=O)cc1)Nc1cc(C(F)(F)F)cc(C(F)(F)F)c1 | 590 nM
86 | CCS(=O)(=O)c1ccc(-c2cnc3[nH]cc(-c4ccc(N)cc4)c3c2)cc1 | 850 nM
87 | O=C(CCc1cnc[nH]1)Nc1ccc(-c2ccc(-c3nc4ccccc4[nH]3)cc2)cc1 | 710 nM
88 | Cc1cc(Nc2cccc(C(F)(F)F)c2)nc2ccc(NC(=O)c3ccc(=O)[nH]c3)cc12 | 490 nM
89 | NC1=NC(c2ccccc2)(c2ccccc2)C(=O)N1CC1CCC1 | 750 nM
90 | Cn1cc(C2CCN(CCCCNC(=O)c3sc(-c4ccc(C(F)(F)F)cc4)nc3CO)CC2)c2ccccc21 | 1060 nM
91 | Nc1nc2c(c(=O)[nH]1)CN(S(=O)(=O)c1ccc(C(=O)N[C@@H](CCC(=O)O)C(=O)O)cc1)CC2 | 150 nM
92 | CC(=O)c1c(C)[nH]c(C(=O)Nc2ccc(-c3nc4ccc(C)cc4s3)cc2)c1C | 840 nM
93 | Oc1cccc(-c2nc(-c3ccccc3)c(-c3ccc(Oc4ccc(-c5[nH]c(-c6cccc(O)c6)nc5-c5ccccc5)cc4)cc3)[nH]2)c1 | 860 nM
94 | COc1ccc(-c2ccc(NC(=O)c3cccc(Cl)c3)c(F)c2)cc1CNC(C)C | 890 nM
95 | CCCCC(CCCC)CN1C(=O)C(c2ccccc2)(c2ccccc2)N=C1N | 180 nM
96 | COc1ccc2nc3cc(Cl)ccc3c(NCCNCC(O)CO)c2n1 (configuration not stated) | 150 nM
97 | CCN(CC)C(C)(C)CN(Cc1ccc(-c2ccc(C(F)(F)F)cc2)cc1)C(=O)Cn1c(CCc2cccc(F)c2F)nc(=O)c2ccccc21 | 960 nM
